This passage reports MIC results from patent US3957987A, “Compositions containing a carbonamidoquinoxaline-di-N-oxide and method of using same” (Bayer Aktiengesellschaft, priority 1971, dated 1976).

Holding throughout (type): cell-based
The test system of one assay is Klebsiella 63. In words: Minimum inhibitory concentration in vitro, Klebsiella 63. The text has this: (§1) As representative of the spectrum of antimicrobial activity for these compounds, the following representative minimum inhibitory concentrations shown on Tables A, B and C can be noted:
(§2) Minimum Inhibitory Concentrations In Vitro, in μg/ml of Medium

The next assay deals with Klebsiella 8085. As to the kind of experiment: Minimum inhibitory concentration in vitro, Klebsiella 8085.
Source text: as §1, §2

In assay [1] the test system is Staphylococcus aureus 133. As to the kind of experiment: Minimum inhibitory concentration in vitro, Staphylococcus aureus 133.
Source text: as §1, §2

The next assay relates to Streptococcus pyogenes. As to the kind of experiment: Minimum inhibitory concentration in vitro, Streptococcus pyogenes.
Source text: as §1, §2

Another assay relates to Clostridium tetani. In words: microbe, parasite or virus in culture. The note with it: read-out: minimum inhibitory concentration.
In another assay the test system is Clostridium botulinum. As to the kind of experiment: microbe, parasite or virus in culture. Particulars: read-out: minimum inhibitory concentration.
The test system of another assay is Mycoplasma MS. In words: Minimum inhibitory concentration, Mycoplasma MS. An excerpt:
(§3) As representative of the spectrum of antimicrobial activity for these compounds, the following representative minimum inhibitory concentrations shown on Tables A, B and C can be noted: […]

Another assay has as its system Mycoplasma S6. As to the kind of experiment: Minimum inhibitory concentration, Mycoplasma S6.
In another assay the test system is Mycoplasma gran. In words: Minimum inhibitory concentration, Mycoplasma gran.
Assay [2] deals with Pasteurella multocida ATCC. As to the kind of experiment: Minimum inhibitory concentration, Pasteurella multocida ATCC.
Assay [3] deals with Alcaligenes faecalis ATCC. As to the kind of experiment: Minimum inhibitory concentration, Alcaligenes faecalis ATCC.
For assay [4], the system named is Bordetella bronchiseptica. As to the kind of experiment: Minimum inhibitory concentration, Bordetella bronchiseptica.
Another assay concerns Aeromonas liquefaciens. In words: Minimum inhibitory concentration, Aeromonas liquefaciens. The note with it: Aeromonas hydrophila.
The next assay concerns Mycobacterium species. In words: Minimum inhibitory concentration, Mycobacterium species.
Source text: as §3

The test system of the next assay is Escherichia coli C 165. As to the kind of experiment: Minimum inhibitory concentration in vitro, Escherichia coli C 165. The note with it: C165.
Source text: as §1, §2

The subject of another assay is Escherichia coli A 261. In words: Minimum inhibitory concentration in vitro, Escherichia coli A 261. The note with it: A261.
Source text: as §1, §2

Another assay relates to Proteus vulgaris. In words: Minimum inhibitory concentration in vitro, Proteus vulgaris specieis.
Source text: as §1, §2

Converted amounts (≈) assume the structure as drawn.

As for `CCN(CC)C(=O)c1c(C=NNC(=O)OC)[n+]([O-])c2ccccc2[n+]1[O-]` [Example 11], the MIC worked out at 100 µg/mL (≈ 277 µM) against Klebsiella 63; 100 µg/mL (≈ 277 µM) against Klebsiella 8085; 100 µg/mL (≈ 277 µM) in [1]; 100 µg/mL (≈ 277 µM) with Streptococcus pyogenes; 10 µg/mL (≈ 27.7 µM) in the assay with Clostridium tetani; 10 µg/mL (≈ 27.7 µM) in the assay on Clostridium botulinum. The MIC in the assay on Mycoplasma MS came to 100 µg/mL (≈ 277 µM); in the assay with Mycoplasma S6, 10 µg/mL (≈ 27.7 µM); in the assay on Mycoplasma gran, 10 µg/mL (≈ 27.7 µM); in [2], 1 µg/mL (≈ 2.77 µM); in assay [3], 100 µg/mL (≈ 277 µM); in [4], 100 µg/mL (≈ 277 µM). Further, the MIC with Aeromonas liquefaciens and against Mycobacterium species was 100 µg/mL (≈ 277 µM) in each case.
`COC(=O)NN=Cc1c(C(=O)N2CCCC2)[n+]([O-])c2ccccc2[n+]1[O-]` [Example 12]: the MIC in the assay on Klebsiella 63 came out at 100 µg/mL (≈ 278 µM); against Klebsiella 8085, 100 µg/mL (≈ 278 µM); in assay [1], 10 µg/mL (≈ 27.8 µM); with Streptococcus pyogenes, 100 µg/mL (≈ 278 µM); in the assay on Escherichia coli C 165 it was 100 µg/mL (≈ 278 µM); in the assay on Clostridium tetani, 10 µg/mL (≈ 27.8 µM). The MIC in the assay on Clostridium botulinum was found to be 10 µg/mL (≈ 27.8 µM); in the assay with Mycoplasma MS, 100 µg/mL (≈ 278 µM); against Mycoplasma S6 it was 10 µg/mL (≈ 27.8 µM); against Mycoplasma gran, 10 µg/mL (≈ 27.8 µM); in [2], 1 µg/mL (≈ 2.78 µM); in assay [3], 100 µg/mL (≈ 278 µM). The MIC (in assay [4]; in the assay on Aeromonas liquefaciens; against Mycobacterium species) was 100 µg/mL (≈ 278 µM) throughout.
For `CNC(=O)c1c(C=NNC(=O)OC)[n+]([O-])c2ccccc2[n+]1[O-]` [Example 13], the MIC is 100 µg/mL (≈ 313 µM) with Klebsiella 63; 10 µg/mL (≈ 31.3 µM) against Klebsiella 8085; 100 µg/mL (≈ 313 µM) in [1]; 100 µg/mL (≈ 313 µM) in the assay on Streptococcus pyogenes; 100 µg/mL (≈ 313 µM) against Escherichia coli C 165; 100 µg/mL (≈ 313 µM) in the assay on Escherichia coli A 261. In addition, the MIC (in the assay on Proteus vulgaris; in the assay on Clostridium tetani; in the assay with Clostridium botulinum; in the assay with Mycoplasma S6; in the assay on Mycoplasma gran; in assay [2]) was 100 µg/mL (≈ 313 µM) each time. For the same compound, the MIC (in [3]; in [4]; in the assay on Aeromonas liquefaciens; with Mycobacterium species) was 100 µg/mL (≈ 313 µM) throughout.
On to `CCCNC(=O)c1c(C=NNC(=O)OC)[n+]([O-])c2ccccc2[n+]1[O-]` [Example 15], for which the MIC in the assay with Klebsiella 63 amounted to 100 µg/mL (≈ 288 µM); against Klebsiella 8085 it was 100 µg/mL (≈ 288 µM); in assay [1], 100 µg/mL (≈ 288 µM); against Streptococcus pyogenes, 10 µg/mL (≈ 28.8 µM); against Escherichia coli C 165 it was 100 µg/mL (≈ 288 µM); in the assay on Escherichia coli A 261 it was 100 µg/mL (≈ 288 µM). Also, the MIC (in the assay on Clostridium tetani; with Clostridium botulinum; against Mycoplasma S6; in the assay on Mycoplasma gran; in assay [2]; in [3]) was 100 µg/mL (≈ 288 µM) each time. The MIC (in [4]; against Aeromonas liquefaciens; against Mycobacterium species) was 100 µg/mL (≈ 288 µM) each time.
In the case of `COC(=O)NN=Cc1c(C(=O)NC(C)C)[n+]([O-])c2ccccc2[n+]1[O-]` [Example 17], the MIC against Klebsiella 63 was determined as 100 µg/mL (≈ 288 µM); against Klebsiella 8085 it was 10 µg/mL (≈ 28.8 µM); in [1] it was 100 µg/mL (≈ 288 µM); in the assay with Streptococcus pyogenes, 100 µg/mL (≈ 288 µM); against Escherichia coli C 165 it was 100 µg/mL (≈ 288 µM); against Escherichia coli A 261, 100 µg/mL (≈ 288 µM). The MIC (with Clostridium tetani; with Clostridium botulinum; in the assay on Mycoplasma S6; in the assay on Mycoplasma gran; in assay [2]; in assay [3]) was 100 µg/mL (≈ 288 µM) throughout. The MIC (in assay [4]; against Aeromonas liquefaciens; against Mycobacterium species) was 100 µg/mL (≈ 288 µM) in each case.
Consider `CCOC(=O)NN=Cc1c(C(=O)NC)[n+]([O-])c2ccccc2[n+]1[O-]` [Example 26], for which the MIC in the assay on Klebsiella 63 amounted to 100 µg/mL (≈ 300 µM); against Klebsiella 8085, 10 µg/mL (≈ 30 µM); in assay [1] it was 100 µg/mL (≈ 300 µM); with Streptococcus pyogenes it was 100 µg/mL (≈ 300 µM); with Escherichia coli C 165 it was 100 µg/mL (≈ 300 µM); in the assay with Clostridium tetani, 100 µg/mL (≈ 300 µM). The MIC came to 1 µg/mL (≈ 3 µM) in the assay on Clostridium botulinum; 100 µg/mL (≈ 300 µM) in the assay with Mycoplasma MS; 100 µg/mL (≈ 300 µM) against Mycoplasma S6; 0.1 µg/mL (≈ 0.3 µM) against Mycoplasma gran; 100 µg/mL (≈ 300 µM) in [2]; 100 µg/mL (≈ 300 µM) in assay [3]. Further, the MIC (in [4]; against Aeromonas liquefaciens) was 100 µg/mL (≈ 300 µM) throughout.
